Legend:
[1] = FDA statistics, third stage of clinical tests; cited from earlier work
HeLa cells = test: Effect of Antican on HeLa cells; type: cell-based
Text: In establishing the minimum concentration of Antican that could slow the growth of cells, a comparison was made between the number of surviving cells and the concentration of Antican in the solution.

benzidine skin sarcoma = test: Anticancer activity on benzidine skin sarcoma; type: in vivo, Barbados mice
Procedure: Before applying it to the silica gel, 7 mL of a solution of 2% benzidine and 0.9% sodium chloride were added until an opalescent suspension was formed (1 g silica gel for 5 mL NaCl solution). Twenty-five Barbados mice of both sexes with weight of 18-20 g that were kept on a vivarium diet were administered benzidine and phorbol acetate immobilized on silica gel subcutaneously near the neck. After two weeks, 18 animals had developed tumors of different sizes in the form of a small bump on the neck near the silica gel granulomas. Each group of animals was administered the corresponding compound parenterally, at a dose of 100 μg/kg weight, twice a day for two weeks, starting 16 days after administration of the carcinogen.

[2] = test system: Ehrlich's ascites adenocarcinoma; test: Antitumor activity in Ehrlich's ascites adenocarcinoma; type: in vivo, Barbados mice; conditions: experimental animals, n = 10
Procedure: The antitumor activity of the compositions were studied in models of Ehrlich's ascites carcinoma in young Barbados mice of both sexes with weights between 15-17 g (68 individuals), which were kept on a vivarium diet.
45 mice were inoculated from a mouse with adenocarcinoma using an insulin syringe with 0.1 mL ascitic fluid in the region of the liver.
Ten mice were administered Antican (see Table 8).

SMILES	average effectiveness [1]	Number of Live Cells after Incubation, % (HeLa cells; dose 2 μg/mL)	Number of Live Cells after Incubation, ±1000 (HeLa cells; dose 2 μg/mL)	Number of Live Cells after Incubation, % (HeLa cells; dose 4 μg/mL)	Number of Live Cells after Incubation, ±1000 (HeLa cells; dose 4 μg/mL)	Number of Live Cells after Incubation, % (HeLa cells; dose 6 μg/mL)	Number of Live Cells after Incubation, ±1000 (HeLa cells; dose 6 μg/mL)	Number of Live Cells after Incubation, % (HeLa cells; dose 8 μg/mL)	Number of Live Cells after Incubation, ±1000 (HeLa cells; dose 8 μg/mL)	Number of Live Cells after Incubation, % (HeLa cells; dose 10 μg/mL)	Number of Live Cells after Incubation, ±1000 (HeLa cells; dose 10 μg/mL)	Number of Live Cells after Incubation, % (HeLa cells; dose 12 μg/mL)	Number of Live Cells after Incubation, ±1000 (HeLa cells; dose 12 μg/mL)	Weight of Animal, After Treatment (benzidine skin sarcoma; 100 μg/kg parenterally twice a day for two weeks, n = 7)	mice died (benzidine skin sarcoma; after treatment, n = 7)	Weight of Animal, Before Treatment (benzidine skin sarcoma; before treatment, n = 7)	Animal Survival (benzidine skin sarcoma; benzidine skin sarcoma, n = 10)	Time of Death of Animals after the First Injection, Average Value ([2]; Liposomes +)	Time of Death of Animals after the First Injection, Average Value ([2]; Liposomes −)
CN1CC[C@]23c4c5ccc(O)c4O[C@H]2[C@@H](O)C=C[C@H]3[C@H]1C5 [morphine]	75%																		
CC(=O)O[C@@]12CO[C@@H]1C[C@H](O)[C@@]1(C)C(=O)[C@H](O)C3=C(C)[C@@H](OC(=O)[C@H](O)[C@@H](NC(=O)OC(C)(C)C)c4ccccc4)C[C@@](O)([C@@H](OC(=O)c4ccccc4)[C@H]21)C3(C)C [Taxotere]		100%	150000 Millions	98%	150000 Millions	97%	145000 Millions	89%	135000 Millions	82%	130000 Millions	94%	153000 Millions	23 ± 1.1 g	2	28 ± 1.2 g	28 ± 1.1 days	15 ± 0.5 days	14 ± 0.12 days
